Biological target: T1, Aurora-2 (Homo sapiens, UniProt O14965)
T1 sequence (O14965 1-403): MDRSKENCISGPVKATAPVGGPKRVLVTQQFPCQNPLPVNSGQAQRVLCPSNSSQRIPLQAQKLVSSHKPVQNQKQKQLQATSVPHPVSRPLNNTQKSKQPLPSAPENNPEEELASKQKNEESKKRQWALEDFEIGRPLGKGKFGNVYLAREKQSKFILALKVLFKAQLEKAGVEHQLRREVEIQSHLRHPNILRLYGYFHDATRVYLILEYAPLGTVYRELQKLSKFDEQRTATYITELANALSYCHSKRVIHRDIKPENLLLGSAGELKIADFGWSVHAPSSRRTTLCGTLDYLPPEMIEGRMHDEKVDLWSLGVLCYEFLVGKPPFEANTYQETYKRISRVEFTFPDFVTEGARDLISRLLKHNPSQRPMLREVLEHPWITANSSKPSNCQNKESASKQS
Assay: Ki determination for the inhibition of Aurora-2 (coupled enzyme assay)
Format: biochemical
Conditions: 70 nM Aurora-2, 800 μM peptide LRRASLG, 30° C.
Protocol: To an assay stock buffer solution containing 0.1 M HEPES 7.5, 10 mM MgCl2, 1 mM DTT, 25 mM NaCl, 2.5 mM phosphoenolpyruvate, […], 30 mg/ml pyruvate kinase, 10 mg/ml lactate dehydrogenase, 40 mM ATP, and 800 μM peptide (LRRASLG, American Peptide, Sunnyvale, Calif.) was added a DMSO solution of a compound of the present invention to a final concentration of 30 μM. The resulting mixture was incubated at 30° C. for 10 min. The reaction was initiated by the addition of 10 μL of Aurora-2 stock solution to give a final concentration of 70 nM in the assay. […] The Ki values were determined from the rate data as a function of inhibitor concentration.

Ki: 100 to 1000 nM
Compound: Cc1cc(Nc2cc(-c3ccccc3)nc(Nc3ccccc3)n2)n[nH]1 [IIIc-1, (5-Methyl-2H-pyrazol-3-yl)-(6-phenyl-2-phenylamino-pyrimidin-4-yl)-amine]
